Drawing on ChEMBL document CHEMBL3991601, “The target landscape of clinical kinase drugs” (Science, 2017), this text covers Kd for nine compounds.

Calls of active or inactive are those of the source.

Test [1] concerns the target Proto-oncogene tyrosine-protein kinase Src (Homo sapiens, UniProt P12931).
Test [2] addresses Cyclin-dependent kinase 17 (Homo sapiens, UniProt Q00537).
Test [3] deals with Serine/threonine-protein kinase PAK 6 (Homo sapiens, UniProt Q9NQU5).
The target in test [4] is Proto-oncogene tyrosine-protein kinase receptor Ret (Homo sapiens, UniProt P07949).
Test [5] deals with Serine/threonine-protein kinase Nek7 (Homo sapiens, UniProt Q8TDX7).
For another test, the target named is T1, Aurora kinase A (Homo sapiens, UniProt O14965).
T1 sequence (O14965 whole entry): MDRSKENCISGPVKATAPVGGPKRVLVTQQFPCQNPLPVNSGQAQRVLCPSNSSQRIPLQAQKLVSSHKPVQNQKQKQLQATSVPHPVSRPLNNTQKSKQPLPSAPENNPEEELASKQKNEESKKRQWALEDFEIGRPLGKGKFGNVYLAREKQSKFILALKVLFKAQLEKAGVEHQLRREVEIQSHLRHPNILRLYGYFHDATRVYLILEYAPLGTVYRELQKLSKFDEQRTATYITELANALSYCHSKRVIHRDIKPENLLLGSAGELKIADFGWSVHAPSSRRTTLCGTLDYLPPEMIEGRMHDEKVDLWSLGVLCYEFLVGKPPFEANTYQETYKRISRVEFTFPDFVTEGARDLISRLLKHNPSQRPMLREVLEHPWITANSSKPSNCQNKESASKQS

Another test addresses Midasin (Homo sapiens, UniProt Q9NU22).
The target of test [6] is cAMP-dependent protein kinase catalytic subunit beta (Homo sapiens, UniProt P22694).
The target of test [7] is Serine/threonine-protein kinase MRCK gamma (Homo sapiens, UniProt Q6DT37).
In test [8] the target is T2, Cyclin-dependent kinase-like 5 (Homo sapiens, UniProt O76039).
T2 sequence (O76039 whole entry): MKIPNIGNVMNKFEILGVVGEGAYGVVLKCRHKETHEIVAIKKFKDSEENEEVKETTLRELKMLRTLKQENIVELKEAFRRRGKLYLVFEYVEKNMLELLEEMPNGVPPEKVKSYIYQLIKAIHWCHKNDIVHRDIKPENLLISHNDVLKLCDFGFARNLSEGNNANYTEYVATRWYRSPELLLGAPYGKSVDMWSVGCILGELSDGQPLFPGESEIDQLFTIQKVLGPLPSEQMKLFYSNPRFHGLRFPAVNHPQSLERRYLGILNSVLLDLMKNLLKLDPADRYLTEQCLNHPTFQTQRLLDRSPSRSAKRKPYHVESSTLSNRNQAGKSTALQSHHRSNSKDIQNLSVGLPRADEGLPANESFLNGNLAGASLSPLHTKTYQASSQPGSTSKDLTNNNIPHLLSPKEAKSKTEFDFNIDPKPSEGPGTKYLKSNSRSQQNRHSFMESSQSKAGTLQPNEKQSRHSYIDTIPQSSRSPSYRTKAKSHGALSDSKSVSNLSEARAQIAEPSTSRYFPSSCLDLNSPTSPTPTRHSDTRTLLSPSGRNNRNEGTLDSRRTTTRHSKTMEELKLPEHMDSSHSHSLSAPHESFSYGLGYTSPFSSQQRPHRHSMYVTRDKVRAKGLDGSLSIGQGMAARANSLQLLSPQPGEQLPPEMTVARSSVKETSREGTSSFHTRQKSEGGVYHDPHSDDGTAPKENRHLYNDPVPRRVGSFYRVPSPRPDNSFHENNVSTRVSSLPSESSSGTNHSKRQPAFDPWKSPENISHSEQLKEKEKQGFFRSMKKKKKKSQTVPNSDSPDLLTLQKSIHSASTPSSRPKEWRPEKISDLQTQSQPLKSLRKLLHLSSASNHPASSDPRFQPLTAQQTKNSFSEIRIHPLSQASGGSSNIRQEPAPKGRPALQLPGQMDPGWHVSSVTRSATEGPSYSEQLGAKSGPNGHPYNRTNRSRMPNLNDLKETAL

The target in test [9] is Uncharacterized aarF domain-containing protein kinase 5 (Homo sapiens, UniProt Q3MIX3).
Test [10] concerns the target Dual specificity protein kinase CLK2 (Homo sapiens, UniProt P49760).
Test [11] has as its target Dual specificity testis-specific protein kinase 2 (Homo sapiens, UniProt Q96S53).
The target of test [12] is Dual specificity protein kinase CLK1 (Homo sapiens, UniProt P49759).
Test [13] addresses T3, Adenine phosphoribosyltransferase (Homo sapiens, UniProt P07741).
T3 sequence (P07741 whole entry): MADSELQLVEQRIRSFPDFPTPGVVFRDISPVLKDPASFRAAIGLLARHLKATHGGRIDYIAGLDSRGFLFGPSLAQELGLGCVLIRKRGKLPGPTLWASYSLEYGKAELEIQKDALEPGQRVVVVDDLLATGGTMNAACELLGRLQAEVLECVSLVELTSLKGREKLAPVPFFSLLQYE

The target of test [14] is PAS domain-containing serine/threonine-protein kinase (Homo sapiens, UniProt Q96RG2).
Further: in the data inactive means no Kd found up to 30 µM.

Sequence of Proto-oncogene tyrosine-protein kinase Src (P12931 2-536 limits assumed): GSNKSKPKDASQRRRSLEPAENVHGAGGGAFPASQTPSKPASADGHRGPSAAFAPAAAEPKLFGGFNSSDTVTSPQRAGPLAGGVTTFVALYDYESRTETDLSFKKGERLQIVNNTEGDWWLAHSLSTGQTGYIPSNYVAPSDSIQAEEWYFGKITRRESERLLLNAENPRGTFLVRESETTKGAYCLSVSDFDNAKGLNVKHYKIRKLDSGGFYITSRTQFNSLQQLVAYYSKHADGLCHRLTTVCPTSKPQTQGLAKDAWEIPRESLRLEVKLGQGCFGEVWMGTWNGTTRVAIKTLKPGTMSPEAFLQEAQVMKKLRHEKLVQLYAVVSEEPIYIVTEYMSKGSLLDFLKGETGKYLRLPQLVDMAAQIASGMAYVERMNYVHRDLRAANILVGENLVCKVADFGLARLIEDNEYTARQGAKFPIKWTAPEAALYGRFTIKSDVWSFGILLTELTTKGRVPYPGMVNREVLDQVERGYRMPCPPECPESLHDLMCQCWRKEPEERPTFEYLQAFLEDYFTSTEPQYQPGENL
Sequence of Uncharacterized aarF domain-containing protein kinase 5 (Q3MIX3 whole entry, the tested form may be a part): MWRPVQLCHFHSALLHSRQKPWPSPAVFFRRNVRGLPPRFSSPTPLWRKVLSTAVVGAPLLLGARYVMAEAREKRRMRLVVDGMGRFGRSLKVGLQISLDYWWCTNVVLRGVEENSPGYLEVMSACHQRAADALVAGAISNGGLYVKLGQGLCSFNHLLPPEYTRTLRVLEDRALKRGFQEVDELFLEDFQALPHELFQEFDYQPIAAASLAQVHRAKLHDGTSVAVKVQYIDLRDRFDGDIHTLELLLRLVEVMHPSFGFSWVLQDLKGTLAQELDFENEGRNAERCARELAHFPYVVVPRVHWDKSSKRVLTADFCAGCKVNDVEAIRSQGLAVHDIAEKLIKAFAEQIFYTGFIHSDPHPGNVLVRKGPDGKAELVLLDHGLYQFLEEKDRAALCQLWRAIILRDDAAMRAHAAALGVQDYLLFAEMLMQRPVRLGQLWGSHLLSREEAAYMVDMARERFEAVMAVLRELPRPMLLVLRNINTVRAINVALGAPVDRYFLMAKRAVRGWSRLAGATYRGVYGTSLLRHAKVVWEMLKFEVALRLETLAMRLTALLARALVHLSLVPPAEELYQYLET
Sequence of Serine/threonine-protein kinase Nek7 (Q8TDX7 whole entry): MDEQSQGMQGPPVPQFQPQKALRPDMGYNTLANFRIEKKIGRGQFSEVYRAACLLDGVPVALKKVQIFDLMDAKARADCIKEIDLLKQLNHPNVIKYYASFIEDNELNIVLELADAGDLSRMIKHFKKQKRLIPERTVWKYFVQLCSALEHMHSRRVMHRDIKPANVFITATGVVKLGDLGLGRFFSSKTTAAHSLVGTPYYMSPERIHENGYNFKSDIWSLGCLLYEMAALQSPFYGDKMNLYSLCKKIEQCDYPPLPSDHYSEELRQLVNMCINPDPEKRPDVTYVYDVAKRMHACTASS
Sequence of Cyclin-dependent kinase 17 (Q00537 whole entry): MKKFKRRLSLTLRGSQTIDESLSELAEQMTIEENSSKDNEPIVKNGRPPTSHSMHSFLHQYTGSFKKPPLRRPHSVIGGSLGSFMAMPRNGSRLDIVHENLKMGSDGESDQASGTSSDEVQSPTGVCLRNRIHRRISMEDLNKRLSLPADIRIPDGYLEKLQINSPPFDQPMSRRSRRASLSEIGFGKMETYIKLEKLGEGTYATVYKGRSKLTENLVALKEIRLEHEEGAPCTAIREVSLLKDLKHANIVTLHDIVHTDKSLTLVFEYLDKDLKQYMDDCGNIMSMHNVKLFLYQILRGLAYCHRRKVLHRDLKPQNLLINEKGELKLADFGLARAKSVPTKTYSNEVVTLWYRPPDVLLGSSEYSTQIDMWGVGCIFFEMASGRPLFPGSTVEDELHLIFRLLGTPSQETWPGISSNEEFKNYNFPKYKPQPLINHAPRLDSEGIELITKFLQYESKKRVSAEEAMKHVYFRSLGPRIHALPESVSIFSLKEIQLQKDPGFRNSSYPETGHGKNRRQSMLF
Sequence of Dual specificity protein kinase CLK2 (P49760 whole entry): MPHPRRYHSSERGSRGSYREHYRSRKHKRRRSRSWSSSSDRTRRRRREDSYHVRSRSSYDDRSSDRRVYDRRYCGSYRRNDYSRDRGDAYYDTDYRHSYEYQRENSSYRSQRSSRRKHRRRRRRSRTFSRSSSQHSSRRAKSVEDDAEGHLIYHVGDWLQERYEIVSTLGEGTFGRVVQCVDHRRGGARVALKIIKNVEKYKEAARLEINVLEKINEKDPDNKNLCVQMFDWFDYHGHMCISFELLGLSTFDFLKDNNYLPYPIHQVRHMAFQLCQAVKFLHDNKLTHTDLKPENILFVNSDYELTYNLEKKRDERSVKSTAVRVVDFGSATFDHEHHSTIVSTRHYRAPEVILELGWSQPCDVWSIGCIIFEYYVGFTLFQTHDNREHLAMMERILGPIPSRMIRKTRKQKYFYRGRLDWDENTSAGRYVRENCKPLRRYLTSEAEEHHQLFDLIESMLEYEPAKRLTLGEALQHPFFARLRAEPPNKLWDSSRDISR
Sequence of Proto-oncogene tyrosine-protein kinase receptor Ret (P07949 whole entry): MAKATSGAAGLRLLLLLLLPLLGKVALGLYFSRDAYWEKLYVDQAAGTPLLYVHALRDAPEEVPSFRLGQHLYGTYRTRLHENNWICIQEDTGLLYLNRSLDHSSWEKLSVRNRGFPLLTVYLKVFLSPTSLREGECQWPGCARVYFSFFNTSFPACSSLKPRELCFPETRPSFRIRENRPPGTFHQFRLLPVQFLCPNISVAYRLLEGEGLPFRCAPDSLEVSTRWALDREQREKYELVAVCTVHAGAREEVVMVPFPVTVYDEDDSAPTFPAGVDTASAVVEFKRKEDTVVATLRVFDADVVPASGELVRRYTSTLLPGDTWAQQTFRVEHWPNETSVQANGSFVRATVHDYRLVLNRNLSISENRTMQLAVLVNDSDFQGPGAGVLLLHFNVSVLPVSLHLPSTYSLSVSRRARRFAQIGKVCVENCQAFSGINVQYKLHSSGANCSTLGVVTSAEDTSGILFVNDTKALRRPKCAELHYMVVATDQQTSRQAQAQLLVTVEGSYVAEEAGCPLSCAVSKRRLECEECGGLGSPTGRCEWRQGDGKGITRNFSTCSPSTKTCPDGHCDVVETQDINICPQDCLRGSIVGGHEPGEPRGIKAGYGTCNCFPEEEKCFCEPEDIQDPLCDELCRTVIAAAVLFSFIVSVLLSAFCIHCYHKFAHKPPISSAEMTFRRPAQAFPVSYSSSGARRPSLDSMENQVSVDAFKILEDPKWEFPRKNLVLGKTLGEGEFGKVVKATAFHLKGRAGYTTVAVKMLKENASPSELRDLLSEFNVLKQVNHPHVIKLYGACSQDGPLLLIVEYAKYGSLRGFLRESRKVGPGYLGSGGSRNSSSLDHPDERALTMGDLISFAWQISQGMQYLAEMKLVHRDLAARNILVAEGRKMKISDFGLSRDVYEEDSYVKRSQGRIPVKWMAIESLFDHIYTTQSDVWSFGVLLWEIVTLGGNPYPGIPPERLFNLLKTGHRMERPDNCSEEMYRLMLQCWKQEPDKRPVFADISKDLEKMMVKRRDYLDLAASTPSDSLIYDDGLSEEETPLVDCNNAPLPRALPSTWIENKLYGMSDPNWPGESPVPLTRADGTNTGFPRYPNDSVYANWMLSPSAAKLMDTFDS
Sequence of Serine/threonine-protein kinase PAK 6 (Q9NQU5 whole entry): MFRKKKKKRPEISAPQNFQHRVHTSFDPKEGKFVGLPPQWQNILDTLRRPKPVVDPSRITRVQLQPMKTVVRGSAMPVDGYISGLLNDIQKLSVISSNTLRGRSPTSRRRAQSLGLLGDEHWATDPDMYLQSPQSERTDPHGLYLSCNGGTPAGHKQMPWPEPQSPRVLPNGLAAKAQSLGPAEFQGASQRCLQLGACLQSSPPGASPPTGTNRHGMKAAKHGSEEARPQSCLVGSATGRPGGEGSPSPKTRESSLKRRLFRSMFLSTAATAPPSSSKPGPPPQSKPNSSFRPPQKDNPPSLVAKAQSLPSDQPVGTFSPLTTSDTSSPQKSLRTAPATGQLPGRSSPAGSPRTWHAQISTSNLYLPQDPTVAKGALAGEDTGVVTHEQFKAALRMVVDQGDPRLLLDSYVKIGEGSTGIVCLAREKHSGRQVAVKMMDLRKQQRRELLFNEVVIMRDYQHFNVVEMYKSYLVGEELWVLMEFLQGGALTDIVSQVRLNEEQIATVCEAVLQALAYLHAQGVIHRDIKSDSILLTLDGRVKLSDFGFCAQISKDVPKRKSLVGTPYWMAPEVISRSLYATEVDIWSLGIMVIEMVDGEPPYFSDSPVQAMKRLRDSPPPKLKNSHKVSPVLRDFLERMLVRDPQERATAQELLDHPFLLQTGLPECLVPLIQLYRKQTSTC
Sequence of Dual specificity protein kinase CLK1 (P49759 whole entry): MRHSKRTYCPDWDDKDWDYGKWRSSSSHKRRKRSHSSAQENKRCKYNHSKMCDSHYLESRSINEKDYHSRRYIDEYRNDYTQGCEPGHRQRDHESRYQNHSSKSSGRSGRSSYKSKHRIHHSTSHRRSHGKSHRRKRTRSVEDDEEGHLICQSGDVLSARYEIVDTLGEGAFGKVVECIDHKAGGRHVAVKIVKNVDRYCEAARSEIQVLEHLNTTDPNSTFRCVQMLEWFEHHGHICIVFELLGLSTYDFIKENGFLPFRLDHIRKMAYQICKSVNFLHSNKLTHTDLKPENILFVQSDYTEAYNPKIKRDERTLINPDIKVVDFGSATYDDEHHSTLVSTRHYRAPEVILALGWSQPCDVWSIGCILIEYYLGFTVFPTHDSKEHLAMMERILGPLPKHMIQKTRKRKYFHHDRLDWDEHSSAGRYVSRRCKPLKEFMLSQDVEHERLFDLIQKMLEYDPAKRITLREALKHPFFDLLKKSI

Take `Cn1ncc(Cl)c1-c1cc(C(=O)N[C@H](CN)Cc2cccc(F)c2)sc1Cl` [AFURESERTIB]: the Kd (in test [1]; in test [2]; in test [3]; in test [4]; in [5]; at Aurora kinase A) was > 30 µM (inactive) each time. The Kd was > 30 µM (inactive) at Midasin, 0.211 µM (active) in test [6] and > 30 µM (inactive) in test [7].

For `COC(=O)[C@@]1(O)C[C@H]2O[C@]1(C)n1c3ccccc3c3c4c(c5c6ccccc6n2c5c31)C(=O)NC4` [K-252A], the Kd in test [1] is > 30 µM (inactive); in test [8], > 30 µM (inactive); in test [2], > 30 µM (inactive); in [3] it was > 30 µM (inactive); in [9] it was > 30 µM (inactive); in test [10], 3.81 µM (active). Moreover, the Kd in test [5] was 0.003 µM; at Aurora kinase A, 0.02 µM (active); on Midasin, > 30 µM (inactive); in [6] it was > 30 µM (inactive); in test [11] it was > 30 µM (inactive); in test [12] it was 0.01 µM (active). Moreover, in test [7], the Kd is > 30 µM (inactive).

`O=C(Nc1cccc(Cl)c1)Nc1ncc(CCNc2ncnc3ccsc23)s1` [SNS-314]: the Kd (in test [8]; in test [13]; in test [9]; in test [5]; on Midasin; in test [6]) was > 30 µM (inactive) throughout. In addition, the Kd in [12] and in test [7] was > 30 µM (inactive) in each case.

For the compound `CC(C)Nc1cc(-c2c[nH]c(C(=O)N[C@H](CO)c3cccc(Cl)c3)c2)c(Cl)cn1` [ULIXERTINIB], the Kd in [1], in test [8], in test [13], in test [2], in [3] and in test [14] was > 30 µM (inactive) throughout. For the same compound, the Kd (in test [9]; in test [4]; in test [5]; at Aurora kinase A; on Midasin; in test [6]) was > 30 µM (inactive) in each case. The Kd in test [11], in test [12] and in [7] was > 30 µM (inactive) each time.

Turning to `Cc1ccc(-n2nc(C(C)(C)C)cc2NC(=O)NCc2cc(F)ccc2Oc2ccc3c(cnn3CCO)c2)cc1` [PEXMETINIB], the Kd is > 30 µM (inactive) in [1]; > 30 µM (inactive) in test [13]; 0.402 µM (active) in test [2]; > 30 µM (inactive) in test [3]; > 30 µM (inactive) in test [14]; > 30 µM (inactive) in test [10]. The Kd in test [4] is 1.2 µM (active); in [5] it was > 30 µM (inactive); on Aurora kinase A it was > 30 µM (inactive); on Midasin, > 30 µM (inactive); in [6], > 30 µM (inactive); in test [12] it was > 30 µM (inactive). Further, in test [7], the Kd is > 30 µM (inactive).

For `CCN1CCN(Cc2ccc(-c3cc4c(N[C@H](C)c5ccccc5)ncnc4[nH]3)cc2)CC1` [AEE-788], the Kd in test [1], in test [13], in test [2], in [3], in test [14] and in [9] was > 30 µM (inactive) each time. Further, the Kd (in test [10]; in test [5]; on Aurora kinase A; on Midasin; in [6]; in test [12]) was > 30 µM (inactive) throughout. The Kd in test [7] is > 30 µM (inactive).

For the compound `CN(C)C(=O)c1cc2cnc(Nc3ccc(N4CCNCC4)cn3)nc2n1C1CCCC1` [RIBOCICLIB], the Kd in [1], in [8], in [14], in test [9], in test [4] and in [5] was > 30 µM (inactive) in each case. Also, the Kd (on Aurora kinase A; on Midasin; in [6]; in test [11]; in [12]; in test [7]) was > 30 µM (inactive) in each case.

Turning to `CN1CC[C@@H](c2c(O)cc(O)c3c(=O)cc(-c4ccccc4Cl)oc23)[C@@H]1CO`, the Kd in test [1] is > 30 µM (inactive); in [8], 0.024 µM; in [13], > 30 µM (inactive); in test [2] it was > 30 µM (inactive); in test [3] it was > 30 µM (inactive); in [14], > 30 µM (inactive). Besides, the Kd (in test [10]; in test [4]; in test [5]; on Aurora kinase A; on Midasin; in test [6]) was > 30 µM (inactive) each time. For the same compound, in test [12], the Kd was > 30 µM (inactive).

In the case of `O=C(c1ccc(F)c(F)c1Nc1ccc(I)cc1F)N1CC(O)([C@@H]2CCCCN2)C1` [COBIMETINIB], the Kd in [1], in test [8], in test [2], in test [3], in [10] and in [4] was > 30 µM (inactive) in each case. In addition, the Kd (in test [5]; at Aurora kinase A; at Midasin; in test [6]; in test [11]; in test [12]) was > 30 µM (inactive) each time.
